The values that follow come from US5476933A, “Azepine synthesis via a diels-alder reaction” (priority 1994, dated 1995).

The pKi is the negative decadic logarithm of the Ki, by convention in mol/L. Broadly, the pIC50 is −log10 of the IC50, conventionally taken in molar units. In general, ED50 refers to the dose that gives a 50% effect, or the effect in half of the subjects.

pIC50, pKd, pKi: −log10 of the molar value. Where two headings read alike, the source gives them in different places.

The subject of series [1] is glycine binding site of the NMDA receptor. The conditions noted are these: cited from earlier work; for affinity / antagonism at the glycine binding site, in words: literature.
The next series deals with T1, glycine/NMDA receptor (Rattus norvegicus, UniProt P35439).
T1 construct: expressed in transfected cells; host or cells: Xenopus oocytes (RNA injected)
As to the kind of experiment: electrophysiology using Xenopus oocytes. Format: cell-based.

The next series concerns male Swiss/Webster mice. As to the kind of experiment: maximum electroshock-induced seizure (MES) assay. The format is in vivo, mouse. The conditions noted are these: anticonvulsant, MES in mice; for ED50: Mus musculus, iv. The protocol: The anticonvulsant activity of the glycine antagonists may be assessed in the maximum electroshock-induced seizure (MES) assay in mice. […] The seizure stimulus parameters are 50 mA, 60 Hz, rectangular pulse, width 0.8 msec, duration 200 msec. Tonic hind limb extension observed after application of the electrical stimulus is recorded as occurrence of seizure.

The conditions of series [2]: literature; cited from earlier work.
Series [3] concerns neurons in brain ischemia. Particulars: literature; cited from earlier work.
For the next series, the system named is rodents. The conditions noted are these: literature; cited from earlier work.
The target in series [4] is strychnine insensitive glycine site associated with the NMDA receptor complex. The conditions noted are these: Swartz et al., cited from earlier work; for Kb: Mol. Pharmacol. 41:1130-1141 (1992), footnote d.
Series [5] concerns the target T2, glycine binding site of the NMDA receptor (Rattus norvegicus, UniProt P35439).
T2 construct: rat brain membrane homogenates which are enriched in NMDA receptors; tissue Pel-Freez, Rogers, Ark; host or cells: whole rat brain, washed membrane homogenate
Put plainly: 1 μM glycine-stimulated [3H]-MK-801 binding, rat brain membrane homogenates. Particulars: for pIC50 / IC50: rat brain homogenates, [3H]-MK-801 binding, 1 μM glycine; for pIC50: read-out: IC50; for activity (glycine receptor antagonism), in words: structure-activity statements. The protocol:
^a Experiments described herein utilizing rat brain homogenates and a
The assay is conducted using rat brain membrane homogenates which are enriched in NMDA receptors. The membranes are prepared as follows. Frozen rat brains (obtained from Pel-Freez, Rogers, Ark.) are homogenized in 15 volumes (w/v) of ice cold 0.32M sucrose. The homogenate is spun at 1,000×g for ten minutes. The supernatant is collected and spun for 20 minutes at 44,000×g. The pellet is suspended in 15 volumes of water (relative to original brain weight). The homogenate is again spun at 44,000×g for twenty minutes. The pellet is resuspended in 5 volumes of water and the suspension is freeze-thawed 2 times. After the final thaw cycle, the suspension is brought to 15 volumes with water and spun at 44,000×g for twenty minutes. The pellet is resuspended in 5 volumes of ice-cold 10 mM HEPES, and is titrated to pH 7.4 with KOH containing 0.04% Triton X-100. Membranes are incubated with the Triton/HEPES buffer at 37° C. for 15 minutes. The volume is then brought to 15 with ice-cold 10 mM HEPES, pH 7.4, and spun/washed three times with spins of 44,000×g between washes. The final pellet is suspended in three volumes of 50 mM HEPES, pH 7.4 and the protein concentration is determined with a standard dye-binding protein assay (Bio-Rad, Richmond, Calif.). The suspension is stored at -80° C. until used. Only HPLC grade water is used for all buffers and suspensions/washings. The extensive washings are necessary to remove as much endogenous glycine from the membrane preparation as possible.
Nonspecific binding is defined as the […] presence of PCP (final concentration: 100 μM). […] A 500 nM concentration (final) of 5,7-dichlorokynurenic (DCK) acid is added to all assay tubes. This concentration of the glycine antagonist DCK "buffers" most of the residual endogenous glycine that is not removed by the extensive washing steps that are carried out during the membrane preparation procedure.
The assays are incubated for 120 minutes at room temperature after which time the membrane-bound radioactivity is isolated from the free radioactivity by vacuum filtration through Whatman glass fiber filters that had been pretreated with 0.3% polyethyleneimine. Filtration is accomplished using a Brandel 48 well cell harvester. Filtered membranes are washed three times with 3 mL each of ice cold buffer. Filters are transferred to scintillation vials and 5 mL of scintillation cocktail is added. The vials are shaken overnight and the radioactivity is counted by liquid scintillation spectroscopy. The assays are done in triplicate and all experiments are conducted at least three times.
Inhibition dose response curves are constructed using increasing concentrations of glycine antagonists from 5 nM to 330 μM.
After constructing inhibition dose response curves and determination of glycine reversibility, Ki values for the glycine antagonists are calculated using the Cheng and Prusoff equation employing the experimentally determined IC50 values, the known concentration of glycine in the assay (1 μM) and the known affinity of glycine for the glycine binding site of the NMDA receptor (100 nM).
Binding Assays and In Vivo Studies.

In the next series the test system is guinea pig ileum. The conditions noted are these: guinea pig ileum contraction; footnote c; cited from earlier work.
Series [6] concerns the target strychnine insensitive glycine site associated with the NMDA receptor complex. The conditions noted are these: rat brain homogenates, [3H]-glycine binding; footnote b; cited from earlier work.
The mark [7] stands for this setting: from electrophysiology using Xenopus oocytes unless otherwise noted, read-out: Ki.

For the compound `O=C(O)c1cc(O)c2c(Cl)cc(Cl)cc2n1` [5,7-dichlorokynurenic acid (DCK), 5,7-dichlorokynurenic acid], the “affinity / antagonism at the glycine binding site, in words” value (“affinity / antagonism” below) in series [1] is “relatively high receptor binding affinity in vitro”.
At glycine/NMDA receptor, `O=c1[nH]c2cc(Cl)c(Cl)c([N+](=O)[O-])c2[nH]c1=O` [6,7-dichloro-5-nitro-1,4-dihydroquinoxaline-2,3-dione] gave a pKi of 8.48. In addition, the “ED50 (MES)” value with male Swiss/Webster mice fell in the range of 4 to 5 mg/kg.
For the compound `O=C(O)c1cc(O)c2ccc(Cl)cc2n1` [7-Cl-kynurenic acid], the “affinity / antagonism” value in series [1] was “relatively high receptor binding affinity in vitro”. Further, the “blood/brain barrier penetration, in words” value in series [2] is given as “cannot penetrate the blood/brain barrier”.
In the case of `O=C(O)[C@@H]1C[C@H](CP(=O)(O)O)CCN1` [CGS 19755], the “neuroprotective efficacy, in words” value in series [3] is “neuroprotective efficacy”. The “PCP-like behavioral effects, in words” value with rodents is “adverse PCP-like behavioral side effects”.
As for `O=c1[nH]c2ccccc2c(=O)cc1O` [Compound 1, 3-hydroxy-1H-1-benzazepine-2,5-dione], in [4], the Kb is 3 µM and the “antagonism, in words” value is given as “antagonists at the strychnine insensitive glycine site”. Besides, in series [5], the pIC50 was 5.11.
Take `Cc1ccc2[nH]c(=O)c(O)cc(=O)c2c1` [Compound 2]: in series [4], the Kb is 9.5 µM and the “antagonism, in words” value was “antagonists at the strychnine insensitive glycine site”.
For the compound `Cc1ccc2c(=O)cc(O)c(=O)[nH]c2c1` [Compound 3], in [4], the Kb is 0.47 µM and the “antagonism, in words” value is given as “antagonists at the strychnine insensitive glycine site”. Also, in [5], the pIC50 is 5.47 and the “activity (glycine receptor antagonism), in words” value (from here on “activity”) is “enhanced activity”.
Consider `O=c1[nH]c2cc(F)ccc2c(=O)cc1O` [Compound 5], for which, in [5], the pIC50 was 5.77 and the “activity” value was “enhanced activity”.
With `O=c1[nH]c2cc(Cl)ccc2c(=O)cc1O` [Compound 6], the pIC50 in [5] is 5.60; in the series with guinea pig ileum it was 6.96; in [6] it was 7.52. Moreover, the “activity” value in series [5] is reported as “enhanced activity”.
`O=c1[nH]c2cc(Br)ccc2c(=O)cc1O` [Compound 7]: the pIC50 in series [5] was 5.89; in the series with guinea pig ileum, 6.00; in [6], 7.01. Moreover, in [5], the “activity” value is listed as “enhanced activity”.
Turning to `O=c1[nH]c2ccc([N+](=O)[O-])cc2c(=O)cc1O` [Compound 11], the pIC50 in [5] is 3.52.
Consider `CC(=O)Nc1ccc2[nH]c(=O)c(O)cc(=O)c2c1` [Compound 12], for which the pIC50 in series [5] was 4.03.
With `O=C(Nc1ccc2[nH]c(=O)c(O)cc(=O)c2c1)C(F)(F)F` [Compound 13], in series [5], the IC50 entry is “Inactive”.
Same read-out and setting: for `[N-]=[N+]=Nc1ccc2[nH]c(=O)c(O)cc(=O)c2c1` [Compound 14] the value was “Inactive”; for `O=c1[nH]c2ccc(Br)cc2c(=O)cc1O` [Compound 15], “Inactive”.
`O=c1[nH]c2cc(C(F)(F)F)ccc2c(=O)cc1O` [Compound 16]: in [5], the pIC50 was 5.47 and the “activity” value is “enhanced activity”.
With `Cc1cccc2c(=O)cc(O)c(=O)[nH]c12` [Compound 43, 3-Hydroxy-9-methyl-1H-1-benzazepine-2,5-dione], the IC50 result in series [5] is “inactive”.
For the compound `Cc1cc(C)c2[nH]c(=O)c(O)cc(=O)c2c1` [Compound 44, 3-Hydroxy-7,9-dimethyl-1H-1-benzazepine-2,5-dione], the IC50 result in series [5] was “inactive”.
Same read-out and setting: for `Cc1ccc(C)c2c(=O)cc(O)c(=O)[nH]c12` [Compound 45, 3-Hydroxy-6,9-dimethyl-1H-1-benzazepine-2,5-dione] the value was “inactive”.
For the compound `Cc1cc2[nH]c(=O)c(O)cc(=O)c2cc1C` [Compound 46, 3-Hydroxy-7,8-dimethyl-1-benzazepine-2,5-dione], the pIC50 in [5] is 5.14.
In series [5] (from binding assays (footnote d of Table 2)), `O=c1cc(O)c(=O)[nH]c2c1C1CCC2C1` (stereo not drawn) [Compound 70, 3-hydroxy-6,9-methano-6,7,8,9-tetrahydro-1H-1-benzazepine-2,5-dione] had a pKi of 6.12. In addition, the pIC50 in [5] was 5.08.
Take `O=c1cc(O)c(=O)[nH]c2c1CC(Cl)C(Cl)C2` (stereo not drawn) [Compound 74, 3-Hydroxy-7,8-dichloro-6,7,8,9-tetrahydro-1H-1-benzazepine-2,5-dione]: in series [5], the pIC50 was 5.44. Moreover, on glycine/NMDA receptor (setting [7]), the pKi is 7.52. Also, in the series with male Swiss/Webster mice, the median effective dose (ED50) came out at 30 mg/kg.
For `CC1Cc2[nH]c(=O)c(O)cc(=O)c2CC1C` (stereo not drawn) [Compound 81, 7,8-dimethyl-3-hydroxy-6,7,8,9-tetrahydro-1H-1-benzazepine-2,5-dione] the same measures were 5.03, 6.75 and 6 mg/kg.
For `O=c1cc(O)c(=O)[nH]c2c1C1CCC2CC1` [Compound 87, 6,9-Ethano-3-hydroxy-6,7,8,9-tetrahydro-1H-1-benzazepine-2,5-dione] the same measures were 5.17, 6.48 and 8 mg/kg.
As to `Cc1cccc2[nH]c(=O)c(O)cc(=O)c12` [Compound 93, 3-Hydroxy-6-methyl-1H-1-benzazepine-2,5-dione], in series [5], the pIC50 is 3.71.
As for `Cc1cc(C)c2c(=O)cc(O)c(=O)[nH]c2c1` [Compound 97, 6,8-Dimethyl-3-hydroxy-1H-1-benzazepine-2,5-dione], the pIC50 in series [5] was 4.59.
As for `Cc1cc2[nH]c(=O)c(O)cc(=O)c2c(C)c1[N+](=O)[O-]` [Compound 99, 6,8-Dimethyl-3-hydroxy-7-nitro-1H-1-benzazepine-2,5-dione], the pIC50 in series [5] is 4.16.
For `Cc1ccc2[nH]c(=O)c(O)cc(=O)c2c1C` [Compound 109, 6,7-dimethyl-3-hydroxy-1H-1-benzazepine-2,5-dione], in series [5], the IC50 entry is “inactive”.
Consider `CC1c2c([nH]c(=O)c(O)cc2=O)CC(Cl)C1Cl` (stereo not drawn) [Compound 112, 7,8-dichloro-3-hydroxy-6-methyl-6,7,8,9-tetrahydro,1H-1-benzazepine-2,5-dione], for which the pIC50 in series [5] was 6.42. Also, the pKi on glycine/NMDA receptor (setting [7]) is 8.15.
For `NC1CCN(O)C1=O` (stereo not drawn) [HA-966], the “affinity / antagonism” value in series [1] is listed as “partial agonist with micromolar affinity for the glycine binding site”. Besides, in series [2], the “blood/brain barrier penetration, in words” value is reported as “sufficiently penetrates the blood/brain barrier”.
Take `O=C(O)C1CC2CC(CP(=O)(O)O)CCC2CN1` (stereo not drawn) [LY274614]: in series [3], the “neuroprotective efficacy, in words” value is recorded as “neuroprotective efficacy”.
On to `NCC(=O)O` [glycine], for which the pKd in series [1] (used in Cheng and Prusoff equation, read-out: known affinity of glycine for the glycine binding site of the NMDA receptor) is 7.00.
As to `O=C(O)c1cc2ccccc2[nH]1` [indole-2-carboxylic acid], the “affinity / antagonism” value in series [1] was “relatively high receptor binding affinity in vitro”. Further, the “blood/brain barrier penetration, in words” value in series [2] is recorded as “cannot penetrate the blood/brain barrier”.
